Earlier results as cited in publication PMC7566913, “Dual Gene Delivery Reagents From Antiproliferative Alkylphospholipids for Combined Antitumor Therapy” (Frontiers in Chemistry, 2020).
Where “and” joins values, the source holds several entries; their conditions need not be identical. Equal entries are not always repeated. Where two headings read alike, the source gives them in different places.

What was measured:
[1] = design: method as in Gaillard et al., 2019; conditions: pyrene fluorescence; ref Gaillard et al., 2019; cited from earlier work
[2] = tested on: H292 cells; design: method as in Gaillard et al., 2019; conditions: H292, 24 h at 37°C, MTT assay; ref Gaillard et al., 2019; cited from earlier work
[3] = tested on: 16HBE cells; design: method as in Gaillard et al., 2019; conditions: 24 h at 37°C, MTT assay, ref Gaillard et al., 2019; cited from earlier work
[4] = tested on: sheep RBC; conditions: sheep RBC, 37°C, ref Gaillard et al., 2019, cited from earlier work
[5] = design: method as in Gaillard et al., 2019; conditions: ref Gaillard et al., 2019, cited from earlier work
[6] = design: method as in Gaillard et al., 2019; conditions: lipoplexes with pCMV-Gluc, N/P 3, 1 molar equivalent of DOPE; ref Gaillard et al., 2019; cited from earlier work
[7] = tested on: A549 cells; design: method as in Gaillard et al., 2019; conditions: A549, 24 h at 37°C, MTT assay; ref Gaillard et al., 2019; cited from earlier work

| Structure (SMILES) | CMC (APLs) / CAC (pro-APLs) [1] [µM] | IC50 [2] [µM] | IC50 [3] [µM] | HA200 (hemolytic activity at 200 μM) ([4]; 1 h) [%] | HA200 (hemolytic activity at 200 μM) ([4]; 24 h) [%] | H120 (hydrolysis rate after a 120-h incubation period) ([5]; pH 4.5) [%] | H120 (hydrolysis rate after a 120-h incubation period) ([5]; pH 7.4) [%] | Hydrolytic stability after extended incubation ([5]; pH 7.4 and pH 4.5, 31 days) | Particle size of lipoplexes [6] | IC50 [7] [µM] | t1/2 (time needed for 50% hydrolysis) ([5]; pH 4.5) [h] | t1/2 (time needed for 50% hydrolysis) ([5]; pH 7.4) [h] |
| --- | --- | --- | --- | --- | --- | --- | --- | --- | --- | --- | --- | --- |
| CCCCCCCC/C=C\CCCCCCCCCCCCOP(=O)(OCCCCCCCCCCCC)OCCC[N+](C)(C)C (centres unmarked) [Compound E12] | 0.7 ± 0.3 | 124 ± 11 | 225 ± 31 | 1.9 ± 0.7 | 12.0 ± 1.9 | 0 | 0 | fully stable | 194 ± 28 nm and 194 nm | 81 ± 7 |  |  |
| CCCCCCCC/C=C\CCCCCCCCCCCCOP(=O)(OCCC[N+](C)(C)C)OC(C)OC(=O)OCCCCCCCCCCCC (centres unmarked) [E C^′12] | 0.9 ± 0.2 | 161 ± 25 | 257 ± 81 | < 1 | 7.3 ± 0.8 | 5 | 6 |  | 92 ± 10 nm | 179 ± 63 |  |  |
| CCCCCCCC/C=C\CCCCCCCCCCCCOP(=O)(OCCC[N+](C)(C)C)OC(C)OC(=O)CCCCCCCCCCC (centres unmarked) [E E^′12] | 1.1 ± 0.7 | 73 ± 15 | 63 ± 7 |  | 25.3 ± 2.6 | 53 | 56 |  | 149 ± 15 nm | 192 ± 44 | 104 | 96 |
| CCCCCCCC/C=C\CCCCCCCCCCCCOP(=O)(OCCC[N+](C)(C)C)OCOC(=O)OCCCCCCCCCCCC (centres unmarked) [EC12] | 1.2 ± 0.2 | 167 ± 56 | 252 ± 112 | < 1 | 9.6 ± 2.3 | 1 | 8 |  | 117 ± 15 nm | 161 ± 21 |  |  |
| CCCCCCCC/C=C\CCCCCCCCCCCCOP(=O)(OCCC[N+](C)(C)C)OCOC(=O)OCCCCCCCC/C=C\CCCCCCCC (centres unmarked) [EC18:1] | 0.8 ± 0.4 | 154 ± 40 | 238 ± 58 | < 1 | 20.9 ± 2.5 | 0 | 10 |  | 611 ± 12 nm and 611 nm | 326 ± 36 |  |  |
